Test results: patent US20210393553A1, “PHARMACEUTICAL COMBINATIONS FOR THE TREATMENT OF PAIN” (IMUNEKS FARMA ILAC SANAYI VE TICARET A.S., priority 2018, published 2021)
Several values for one entry are separate records, joined by “and”; a condition that tells them apart may be missing. Equal entries are not always repeated.

Experiments:
[1] = tested on: female Albino Wistar rats; test: Hot plate test (heat induced pain model); assay type: in vivo
rats = test: Tail Flick test; assay type: in vivo

Structure (SMILES) | time of peak of activity in hot plate test ([1]; rat, in vivo) | hot plate test latency ([1]; rat, in vivo, po) | tail flick results (tail flicking reaction time) (rats; rat, in vivo, po) | hot plate test latency ([1]; 15 min after oral gavage, hot plate 52.5° C., group average of 7 rats, cut-off 20 seconds, doses per Table 2) | hot plate test latency ([1]; 30 min after oral gavage, hot plate 52.5° C., group average of 7 rats, cut-off 20 seconds, doses per Table 2) | hot plate test latency ([1]; 45 min after oral gavage, hot plate 52.5° C., group average of 7 rats, cut-off 20 seconds, doses per Table 2) | hot plate test latency ([1]; 60 min after oral gavage, hot plate 52.5° C., group average of 7 rats, cut-off 20 seconds, doses per Table 2) | analgesic effect in the hot plate test, in words ([1]; comparison between groups / versus placebo) | tail flick results (tail flicking reaction time) (rats; 1 hour after oral administration by gavage, same dosages as hot plate study, average of 3 measurements)
COc1cccc(C2(O)CCCCC2CN(C)C)c1 (stereo not drawn) [Tramadol] | 30 min | 5.49 s and 6.90 s and 6.03 s and 6.19 s | 5.81 s |  |  |  |  |  | 
CC(C(=O)O)c1ccc(-c2ccccc2)c(F)c1 (stereo not drawn) [FBP, Flurbiprofen] |  |  |  | 4.87 s | 5.65 s | 5.15 s | 4.96 s | lowest analgesic effect compared to all the other groups except the placebo group | 4.95 s
